Patent US5593970A, “Heterocyclic anthracycline analogs” (priority 1994, dated 1997)
Structures can show the parent of a compound that is named as a salt. Where two headings read alike, the source gives them in different places.

Experiments:
Experiment in all cases: Microculture tetrazolium assay
Assay type in all cases: cell-based
[1] = system: LOX; settings: read-out: IC50
[2] = system: T47D
[3] = system: SKVLB; settings: for VLB/OV3: IC50 ratio SKVLB/SKOV3; for IC50: SKVLB, read-out: IC50
[4] = system: SKOV3; settings: read-out: IC50
[5] = system: HT29
[6] = Homo sapiens, HT-29, HT29, read-out: IC50

“1S,3R-Methyl(1-[2',3',6'-trideoxy-3'-trifluoroacetamido-4'-hydroxy-1,5-dihydro-L-lyxohexopyranose-2-yl)-6,11-dioxo-3,4,5,12-tetrahydroanthraceno[2,3- c]pyran-3-yl)ketone [BCH-2156]” showed an IC50 [1] of 375 nM, an IC50 ([2]; read-out: IC50) of 2710 nM and a VLB/OV3 [3] of 1.57. It also gave an IC50 [3] of 5360 nM, an IC50 ([4]; SKOV3) of 3410 nM and an IC50 ([5]; HT29, read-out: IC50) of 1190 nM.

In the case of `CC(=O)C1CC2=C(C(=O)c3cc4ccccc4c(O)c3C2=O)C(O[C@H]2C[C@H](NC(=O)C(F)(F)F)[C@H](OC(=O)c3ccc([N+](=O)[O-])cc3)[C@H](C)O2)O1` (mixture of isomers) [BCH-1122, (1S',1R,3S) and (1'S,1S,3R)-methyl (6-hydroxy-1-(2',3',6'-trideoxy-3'-trifluoroacetamido-4'-O-p-nitrobenzoyl-L-lyxohexopyranose)-6-hydroxy-5,12-dioxo-3,4,5,12-tetra-hydroanthraceno[2,3-C]pyran-3-yl) ketone], the IC50 [1] is reported as 2140 nM, the IC50 ([2]; Homo sapiens, read-out: IC50) is reported as 6790 nM and the VLB/OV3 [3] is reported as 3.44. For the same compound, the IC50 [3] was 14700 nM, the IC50 ([4]; Homo sapiens, SK-OV-3, SKOV3) was 4270 nM and the IC50 [5, 6] was greater than 100000 nM.

For `CC(=O)C1Cc2c(O)c3c(c(O)c2C(O[C@H]2C[C@H](NC(=O)C(F)(F)F)[C@H](O)[C@H](C)O2)O1)C(=O)c1ccccc1C3=O` (mixture of isomers) [BCH-1131, (1'S,1S,3R) and (1'S,1R,3S)-Methyl-[5,12-dihydroxy-1-(2',3',6'-trideoxy-3'-trifluoroacetamido-4'-hydroxy-L-lyxohexopyranose)-6,11-dioxo-3,4,6,11,tetrahydroanthraceno-(2,3-C)pyran-3-yl]ketone], the IC50 [1] was 4830 nM, the IC50 ([2]; Homo sapiens, read-out: IC50) was 9480 nM and the VLB/OV3 [3] was 2.45. For the same compound, the IC50 [3] was 11200 nM, the IC50 ([4]; Homo sapiens, SK-OV-3, SKOV3) was 4580 nM and the IC50 [5, 6] was 6930 nM.

`COC(=O)[C@@H](N)COC1OC(C(C)=O)CC2=C1C(=O)c1cc3ccccc3c(O)c1C2=O` (mixture of isomers) [BCH-1657, (1S,2'S,3R) and (1R, 2'S,3S)-Methyl-{6-hydroxyl-1[O-serinemethyl ester]-5,12-dioxo-3,4,5,12-tetrahydroanthraceno-[2,3-c]pyran-3-yl}ketone hydrochloride salt] showed an IC50 [1] of 2410 nM, an IC50 ([2]; Homo sapiens, read-out: IC50) of 3110 nM and a VLB/OV3 [3] of 7.42. It also gave an IC50 [3] of 4250 nM, an IC50 ([4]; Homo sapiens, SK-OV-3, SKOV3) of 573 nM and an IC50 [5, 6] of 2590 nM.

Work on `C[C@@H]1O[C@@H](O[C@H]2O[C@H](C(C)(F)F)CC3=C2C(=O)c2cc4ccccc4c(O)c2C3=O)C[C@H](O)[C@@H]1O` (mixture of isomers) [BCH-1662, (1'S,1S,3S) and (1'S,1R, 3R)-5,12-dioxo-3-(1,1-difluoroethyl)-6-hydroxy-1-(2',6'-dideoxy-L-lyxohexopyranose)-3,4,5,12-tetrahydroanthraceno-[2,3-c]-pyran] yielded an IC50 [1] of 38100 nM, an IC50 ([2]; Homo sapiens, read-out: IC50) of 59700 nM and a VLB/OV3 [3] of 1.04. For the same compound, the IC50 [3] was 89900 nM, the IC50 ([4]; Homo sapiens, SK-OV-3, SKOV3) was 86600 nM and the IC50 [5, 6] was 79600 nM.

Work on `C[C@@H]1O[C@@H](O[C@@H]2O[C@@H](C(C)(F)F)CC3=C2C(=O)c2cc4ccccc4c(O)c2C3=O)C[C@H](O)[C@@H]1O` (mixture of isomers) [BCH-1663, (1'S,1S,3S) and (1'S,1R, 3R)-5,12-dioxo-3-(1,1-difluoroethyl)-6-hydroxy-1-(2',6'-dideoxy-L-lyxohexopyranose)-3,4,5,12-tetrahydroanthraceno-[2,3-c]-pyran] yielded an IC50 [1] of 31200 nM, an IC50 ([2]; Homo sapiens, read-out: IC50) of 47900 nM and a VLB/OV3 [3] of 1.16. For the same compound, the IC50 [3] was 32400 nM, the IC50 ([4]; Homo sapiens, SK-OV-3, SKOV3) was 27900 nM and the IC50 [5, 6] was 31300 nM.

`COCC1Cc2c(O)c3c(c(O)c2C(O[C@H]2C[C@H](N)[C@H](O)[C@H](C)O2)O1)C(=O)c1ccccc1C3=O` (mixture of isomers) [BCH-1992, (1'S,1S,3R) and (1'S,1R,3S)-5,12-dihydroxy-3-methoxymethyl-1-(2',3',6'-trideoxy-3'-amino-L-lyxohexopyranose)-1,2,3,4-tetrahydro-(2-oxygen)naphthacene-6,11-dione hydrochloride] was tested, and the IC50 [1] was 666 nM, the IC50 ([2]; Homo sapiens, read-out: IC50) was 807 nM and the VLB/OV3 [3] was 4.81. For the same compound, the IC50 [3] was 2740 nM, the IC50 ([4]; Homo sapiens, SK-OV-3, SKOV3) was 570 nM and the IC50 ([5]; Homo sapiens, HT-29, HT29) was 183 nM.

`C[C@@H]1O[C@@H](O[C@H]2O[C@H](COc3ccccc3)CC3=C2C(=O)c2cc4ccccc4c(O)c2C3=O)C[C@H](NC(=O)C(F)(F)F)[C@@H]1O` (mixture of isomers) [BCH-2048, (1'S,1R,3S) and (1'S,1S,3R)-5,12-dioxo-6-hydroxy-3-phenyloxymethyl-1-(2',3',6'-trideoxy-3'-trifluoroacetamido-L-lyxohexopyranose)-3,4,5,12-tetrahydroanthraceno-[2,3-c]-pyran] was tested, and the IC50 [1] was 1770 nM, the IC50 ([2]; Homo sapiens, read-out: IC50) was 5720 nM and the VLB/OV3 [3] was 2.36. It also gave an IC50 [3] of 10300 nM, an IC50 ([4]; Homo sapiens, SK-OV-3, SKOV3) of 4360 nM and an IC50 [5, 6] of 6380 nM.

For `C[C@@H]1O[C@@H](OC2OC(C#N)Cc3c(O)c4c(c(O)c32)C(=O)c2ccccc2C4=O)C[C@H](NC(=O)C(F)(F)F)[C@@H]1O` (mixture of isomers) [BCH-2055, (1'S,1R,3S) and (1'S,1S,3R)(5,12-Dihydroxy-1-(2',3',6'-trideoxy-3'-trifluoroacetamido-4'-hydroxy-L-lyxohexopyranose)-6,11-dioxo-3,4,5,12-tetrahydroanthraceno-[2,3-c]pyran-3-yl)nitrile], the IC50 [1] was 1130 nM, the IC50 ([2]; Homo sapiens) was 3510 nM and the VLB/OV3 [3] was 2.85. The IC50 [3] was 2560 nM, the IC50 ([4]; Homo sapiens, SK-OV-3, SKOV3) was 898 nM and the IC50 [5, 6] was 471 nM.

In the case of `C[C@@H]1O[C@@H](OC2OC(C#N)Cc3c(O)c4c(c(O)c32)C(=O)c2ccccc2C4=O)C[C@H](N)[C@@H]1O` (mixture of isomers) [BCH-2056, (1'S,1R,3S) and (1'S,1S,3R)(5,12-Dihydroxy-1-(2',3',6'-trideoxy-3'-amino-4'-hydroxy-L-lyxohexopyranose)-6,11-dioxo-3,4,5,12-tetrahydroanthraceno-[2,3-c]pyran-3-yl)nitrile], the IC50 [1] is reported as 170 nM, the IC50 ([2]; Homo sapiens, read-out: IC50) is reported as 271 nM and the VLB/OV3 [3] is reported as 3.50. The IC50 [3] was 598 nM, the IC50 ([4]; Homo sapiens, SK-OV-3, SKOV3) was 171 nM and the IC50 [5, 6] was 83.2 nM.

`C[C@@H]1O[C@@H](O[C@H]2O[C@H](COc3ccccc3)Cc3c(O)c4c(c(O)c32)C(=O)c2ccccc2C4=O)C[C@H](N)[C@@H]1O` (mixture of isomers) [BCH-2058, (1'S,1R,3S) and (1'S,1S,3R)-5,12-dihydroxy-3-phenyloxymethyl-1-(2',3',6'-trideoxy-3'-amino-L-lyxohexopyranose)-1,2,3,4-tetrahydro-(2-oxygen)-naphthacene-6,11-dione-hydrochloride] showed an IC50 [1] of 226 nM, an IC50 ([2]; Homo sapiens, read-out: IC50) of 490 nM and a VLB/OV3 [3] of 1.04. The IC50 [3] was 407 nM, the IC50 ([4]; Homo sapiens, SK-OV-3, SKOV3) was 392 nM and the IC50 [5, 6] was 163 nM.

`C[C@@H]1O[C@@H](O[C@@H]2O[C@@H](COc3ccccc3)Cc3c(O)c4c(c(O)c32)C(=O)c2ccccc2C4=O)C[C@H](N)[C@@H]1O` (mixture of isomers) [BCH-2059, (1'S,1R,3S) and (1'S,1S,3R)-5,12-dihydroxy-3-phenyloxymethyl-1-(2',3',6'-trideoxy-3'-amino-L-lyxohexopyranose)-1,2,3,4-tetrahydro-(2-oxygen)-naphthacene-6,11-dione-hydrochloride] was tested, and the IC50 [1] was 209 nM, the IC50 ([2]; Homo sapiens, read-out: IC50) was 442 nM and the VLB/OV3 [3] was 1.24. The IC50 [3] was 306 nM, the IC50 ([4]; Homo sapiens, SK-OV-3, SKOV3) was 247 nM and the IC50 [5, 6] was 156 nM.

With `CC[C@@H]1CO[C@@H](O[C@H]2C[C@H](NC(=O)C(F)(F)F)[C@H](O)[C@H](C)O2)C2=C1C(=O)c1c(cc3ccccc3c1O)C2=O` (mixture of isomers) [BCH-2084, (1'S, 1S,4S) and (1'S,1R,4R)-5,12-dioxo-4-ethyl-6-hydroxy-1-(2',3',6'-trideoxy-3'-trifluoroacetamido-L-lyxohexopyranose)-3,4,5,12-tetrahydroanthraceno-[2,3-c]-pyran] the IC50 [1] was 5200 nM, the IC50 ([2]; Homo sapiens, read-out: IC50) was 5600 nM and the IC50 [3] was 12000 nM. It also gave an IC50 ([4]; Homo sapiens, SK-OV-3, SKOV3) of 4200 nM and an IC50 [5, 6] of 5800 nM.

For `CC[C@H]1CO[C@H](O[C@H]2C[C@H](N)[C@H](O)[C@H](C)O2)c2c(O)c3c(c(O)c21)C(=O)c1ccccc1C3=O` (mixture of isomers) [BCH-2085, (1'S,1S,4S) and (1'S,1R,4R)-5,12-dihydroxy-4-ethyl-1-(2',3',6'-trideoxy-3'-amino-L-lyxohexopyranose)-1,2,3,4-tetrahydro-(2-oxygen)-naphthacene-6,11-dione-hydrochloride], the IC50 [1] was 580 nM, the IC50 ([2]; Homo sapiens, read-out: IC50) was 1600 nM and the IC50 [3] was 3400 nM. It also gave an IC50 ([4]; Homo sapiens, SK-OV-3, SKOV3) of 1100 nM and an IC50 [5, 6] of 800 nM.

Work on `CC(=O)CC1CC2=C(C(=O)c3cc4ccccc4c(O)c3C2=O)C(O[C@H]2C[C@H](NC(=O)C(F)(F)F)[C@H](O)[C@H](C)O2)O1` (mixture of isomers) [BCH-2097, (1'S,1R,3S) and (1'S,1S,3R)(6-hydroxy-1-(2',3',6'-trideoxy-3'-trifluoroacetamido-4'-hydroxy-L-lyxohexopyranose)-5,12-dioxo-3,4,5,12-tetrahydroanthraceno[2,3-c]pyran-3-yl)propanone] yielded an IC50 [1] of 2510 nM, an IC50 ([2]; Homo sapiens, read-out: IC50) of 4450 nM and a VLB/OV3 [3] of 0.88. For the same compound, the IC50 [3] was 5360 nM, the IC50 ([4]; Homo sapiens, SK-OV-3, SKOV3) was 6060 nM and the IC50 [5, 6] was 2640 nM.

`CC(C)C(=O)C1Cc2c(O)c3c(c(O)c2C(O[C@H]2C[C@H](N)[C@H](O)[C@H](C)O2)O1)C(=O)c1ccccc1C3=O` (mixture of isomers) [BCH-2120, (1'S, 1R,3S) and (1'S, 1S ,3R)-isopropyl-[5,12-dihydroxy-6,11-dioxo-1-(2',3',6'-trideoxy-3'-amino-L-lyxohexopyranose)-3,4,6,11-tetrahydroanthraceno-[2,3-c]-pyran-3-yl]-ketone hydrochloride] gave an IC50 [1] of 143 nM, an IC50 ([2]; Homo sapiens, read-out: IC50) of 314 nM and a VLB/OV3 [3] of 0.92. It also gave an IC50 [3] of 398 nM, an IC50 ([4]; Homo sapiens, SK-OV-3, SKOV3) of 432 nM and an IC50 [5, 6] of 168 nM.
